Measured values reported in patent US10100088B2, “Glycopeptide derivatives for the preservation and protection of biological materials and microorganisms” (TFCHEM, priority 2014, dated 2018).
“Also recorded” adds a separate entry of the source. Where two headings read alike, the source gives them in different places.

Experiments:
[1] = test system: human neonatal skin fibroblasts; assay: UV stress (11 J/cm^2), neutral red uptake viability; format: cell-based; conditions: for viability at 5000 µg/mL / viability at 10000 µg/mL / viability at 15000 µg/mL: Homo sapiens, Skin fibroblast, light or radiation study, read-out: Percentage of viability following UV stress (11 J/cm^2); for viability at 5000 µg/mL: 5 mg/mL; for viability at 10000 µg/mL: 10 mg/mL; for viability at 15000 µg/mL: 15 mg/mL
Method: (§1) The neutral red uptake assay was used for the determination of cell viability. This assay is based on the ability of viable cells to incorporate and bind the supravital dye neutral red in its lysosomes. So, only the viable cells are dyed. At different times after the stress assay (T0), the plates were incubated with neutral red solution for 3.5 hours. The cells are subsequently washed, the dye is extracted in each well and the absorbance is read using a spectrophotometer.
(§2) For sampling, 1 mL of DMEM (without phenol red indicator) with neutral red (OD=0.110) was added to the cells for 3.5 hours (37° C., 10% CO2). After incubation, the medium was removed, two washes of PBS were realized and 1 mL of extraction solution (absolute ethanol 49%, ultrapure water 49%, glacial acetic acid 2%) was added. Plates were placed 15 minutes on rotary shaker in the dark before reading OD at 540 nm.
(§3) The percentage of viability for each assay was calculated as follow: % viability assay=(OD540 nm of tested solution−blank)*100/(OD540 nm of positive control−blank).

[2] = test system: human neonatal skin fibroblasts (CCD-27SK, ATCC CRL-1475); assay: Starvation (serum deprivation) stress, neutral red uptake viability; format: cell-based; conditions: for viability at 5000 µg/mL: Homo sapiens, CCD-27Sk, read-out: Percentage of viability; for preservative/protective effect on skin fibroblasts (in words): starvation medium
Method: (§4) Induced stresses were performed as follow: Starvation
as §1, §2
(§5) The OD540 nm average value of positive control was considered as 100% of viability.
as §3

[3] = test system: human nasal epithelial cells (RPMI2650, ATCC CCL-30); assay: as above; format: cell-based; conditions: for viability at 10000 µg/mL: Homo sapiens, 10 mg/mL, read-out: Percentage of viability
Method: as §4, §1, §2, §5, §3

[4] = test system: human neonatal skin fibroblasts; assay: Oxidative stress (H2O2), neutral red uptake viability; format: cell-based; conditions: for viability at 5000 µg/mL / viability at 10000 µg/mL / viability at 15000 µg/mL: Homo sapiens, Skin fibroblast, read-out: Percentage of viability following oxidative stress; for viability at 5000 µg/mL: 5 mg/mL; for viability at 10000 µg/mL: 10 mg/mL; for viability at 15000 µg/mL: 15 mg/mL
Method: as §4
Then oxidative stress was performed as follow: 0.2 ml of solution at 500 μM of H2O2 was added in wells except for negative control where 0.2 ml of culture medium were added.
as §1, §2, §3

[5] = Comparative stability towards basic conditions (NaOD in D2O), 1H NMR; format: physicochemical
Method: In a first set of experiments (experiments 1 to 7 in table 9), X (10 mg, 1.72 10^−2 mmol) was reacted with 2 to 8 equivalents of NaOD in a total volume of 355 μL of deuterium oxide ([X]=4.8 10^−2 mmol·mL^−1) during 2 h 30 before being acidified with 1M DCl in D2O. To be sure that all compounds in solution are in their acidic form, the equivalents of DCl are adjusted to 3 more equivalents of DCl than the amount required to neutralize the solution (nDCl=nNaOD+3). The volume was adjusted to 544 μL with deuterium oxide.
In a second set of experiments (experiments 8 to 14 in table 9), 17 (10 mg, 1.66 10^−2 mmol) was reacted with 2 to 8 equivalents of NaOD in a total volume of 343 μL of deuterium oxide ([17]=4.8 10^−2 mmol·mL^−1) during 2 h 30 before being acidified with 1M DCl in D2O. To be sure that all compounds in solution are in their acidic form, the equivalents of DCl are adjusted to 3 more equivalents of DCl than the amount required to neutralize the solution (nDCl=nNaOD+3). The volume was adjusted to 526 μL with deuterium oxide.
^1H NMR analyses were performed on each experiment. It is why experiments were realized in deuterium oxide and using 1M NaOD in D2O as base and 1M DCl in D2O as acid.
^1H NMR allows indeed the determination of the amount of compound X1 formed, by comparison between the integration corresponding to the methylene group of the lysine side chain connected to the nitrogen atom in X (CH2NGP) (3.3 ppm) and the integrationof the same methylene group in X1 (CH2Lys hydrolyzed) (3.0 ppm).
To confirm the structure of compounds X1 and X2, resulting from hydrolysis of X, the following experiment was realized, in which X (10 mg, 1.72 10^−2 mmol) was reacted with 8 equivalents of NaOD in a total volume of 355 μL of deuterium oxide ([X]=4.8 10^−2 mmol·mL^−1) during 3 days before being acidified with 1M DCl in D2O. In these conditions, almost the totality of compound X is hydrolyzed, the percentage of hydrolysis of compound X being 85% as determined by ^1H NMR as evidence in table 11.

[6] = D 1 after serum deprivation, 5 mg/mL (Table 2)
[7] = D 7 after serum deprivation, 5 mg/mL (Table 2)
[8] = D 4 after serum deprivation, 5 mg/mL (Table 2)
[9] = D4 after serum deprivation, 10 mg/mL, positive control with 5% FBS (Table 3)
[10] = D8 after serum deprivation, 10 mg/mL, positive control with 5% FBS (Table 3)

With `C[C@H](NC(=O)[C@H](C)NC(=O)[C@@H](N)CCCCNCC(F)(F)C1(O)O[C@H](CO)[C@H](O)[C@H](O)[C@H]1O)C(=O)O` (stereo partly shown) [Compound 19] the “preservative/protective effect against UV stress (in words)” value [1] was “preservative/protective effect against UV stress”, the viability at 5000 µg/mL ([1]; 1 h after irradiation) was 53% and the viability at 10000 µg/mL ([1]; 1 h after irradiation) was 70%. The viability at 15000 µg/mL ([1]; 1 h after irradiation) was 67%, the viability at 5000 µg/mL ([1]; 3 h after irradiation) was 71% and the viability at 10000 µg/mL ([1]; 3 h after irradiation) was 80%. It also gave a viability at 15000 µg/mL ([1]; 3 h after irradiation) of 80%, a viability at 5000 µg/mL ([1]; 24 h after irradiation) of 89% and a viability at 10000 µg/mL ([1]; 24 h after irradiation) of 116%. The viability at 15000 µg/mL ([1]; 24 h after irradiation) was 112%, the “growth or regenerative effect on stressed cells (in words)” value ([1]; viability increased in time after UV) was “growth or regenerative effect” and the Percentage of viability [2, 6] was 73%. The Percentage of viability [2, 7] was 50%, the viability at 5000 µg/mL [2, 6] was 73 to 87% and the viability at 5000 µg/mL [2, 8] was 57%. For the same compound, the viability at 5000 µg/mL [2, 7] was 45 to 50%, the “preservative/protective effect on skin fibroblasts (in words)” value [2] was “significant preservative/protective effect” and the viability at 10000 µg/mL ([3]; RPMI-2650, D4 after serum deprivation) was 52 ± 4.64%. The viability at 10000 µg/mL ([3]; RPMI-2650, D6 after serum deprivation) was 26%, the “preservative/protective effect on human nasal epithelial cells (in words)” value ([3]; starvation medium, 10 mg/ml) was “preservative/protective effect” and the “preservative/protective effect against oxidative stress (in words)” value ([4]; 5 to 15 mg/ml) was “preservative/protective effect against oxidative stress which is dose dependant”. For the same compound, the viability at 5000 µg/mL ([4]; 1 h after 100 μM H2O2) was 89 ± 2.7%, the viability at 10000 µg/mL ([4]; 1 h after 100 μM H2O2) was 99 ± 0.5% and the viability at 15000 µg/mL ([4]; 1 h after 100 μM H2O2) was 110 ± 2%. The viability at 5000 µg/mL ([4]; 24 h after 100 μM H2O2) was 109 ± 2.2%, the viability at 10000 µg/mL ([4]; 24 h after 100 μM H2O2) was 120 ± 2.1% and the viability at 15000 µg/mL ([4]; 24 h after 100 μM H2O2) was 127 ± 5.8%. The “growth/regenerative effect on stressed cells (in words)” value ([4]; viability increased in time after H2O2) was “growth/regenerative effect”.
Compound `CC(=O)O.CC(=O)O.C[C@H](NC(=O)[C@H](C)NC(=O)[C@@H](N)CCCCNCC(F)(F)C1(O)O[C@H](CO)[C@H](O)[C@H](O)[C@H]1O)C(=O)O` (stereo partly shown) [Compound 20] has a Percentage of viability [2, 6] of 87%, a Percentage of viability [2, 8] of 63% and a Percentage of viability [2, 7] of 50%. For the same compound, the “preservative/protective effect on skin fibroblasts (in words)” value [2] was “significant preservative/protective effect”.
In the case of `C[C@H](NC(=O)[C@@H](N)CCCCNCC(F)(F)C1(O)O[C@H](CO)[C@H](O)[C@H](O)[C@H]1O)C(=O)O.Cl.Cl` (stereo partly shown) [Compound 22], the Percentage of viability ([2]; D4 after serum deprivation, 10 mg/mL (Table 4)) is reported as 93% and the “preservative/protective effect on skin fibroblasts (in words)” value [2] is reported as “significant preservative/protective effect”.
In the case of `Cl.Cl.N[C@@H](CCCCNCC(F)(F)C1(O)O[C@H](CO)[C@H](O)[C@H](O)[C@H]1O)C(=O)NCC(=O)NCC(=O)O` (stereo partly shown) [Compound 24], the Percentage of viability [2, 9] is reported as 99 ± 3.35%, the Percentage of viability [2, 10] is reported as 95 ± 1.60% and the “preservative/protective effect on skin fibroblasts (in words)” value [2] is reported as “significant preservative/protective effect”.
For `C[C@H](NC(=O)[C@@H](N)CCCCNCC(F)(F)C1(O)O[C@H](CO)[C@H](O)[C@H](O)[C@H]1O)C(=O)NCC(=O)O.Cl.Cl` (stereo partly shown) [Compound 26], the Percentage of viability [2, 9] was 89 ± 1.21%, the Percentage of viability [2, 10] was 64 ± 2.78% and the “preservative/protective effect on skin fibroblasts (in words)” value [2] was “significant preservative/protective effect”.
For `C[C@H](NC(=O)CNC(=O)[C@@H](N)CCCCNCC(F)(F)C1(O)O[C@H](CO)[C@H](O)[C@H](O)[C@H]1O)C(=O)O.Cl.Cl` (stereo partly shown) [Compound 28], the Percentage of viability [2, 9] was 109 ± 2.05%, the Percentage of viability [2, 10] was 108 ± 3.40% and the “preservative/protective effect on skin fibroblasts (in words)” value [2] was “significant preservative/protective effect”.
In the case of `C[C@H](NC(=O)[C@H](C)NC(=O)[C@@H](N)CCCNCC(F)(F)C1(O)O[C@H](CO)[C@H](O)[C@H](O)[C@H]1O)C(=O)O.Cl.Cl` (stereo partly shown) [Compound 30], the Percentage of viability [2, 9] is reported as 92 ± 1.2%, the Percentage of viability [2, 10] is reported as 74 ± 0.5% and the “preservative/protective effect on skin fibroblasts (in words)” value [2] is reported as “significant preservative/protective effect”.
With `C[C@H](NC(=O)[C@@H](N)CCCCNCC(F)(F)C1(O)O[C@H](CO)[C@H](O)[C@H](O)[C@H]1O)C(=O)N1CCC[C@H]1C(=O)O.Cl.Cl` (stereo partly shown) [Compound 34] the Percentage of viability [2, 9] was 103 ± 1%, the Percentage of viability [2, 10] was 103 ± 2% and the “preservative/protective effect on skin fibroblasts (in words)” value [2] was “significant preservative/protective effect”.
For `C[C@H](N)C(=O)N[C@@H](CCCCNCC(F)(F)C1(O)O[C@H](CO)[C@H](O)[C@H](O)[C@H]1O)C(=O)N[C@@H](C)C(=O)O.Cl.Cl` (stereo partly shown) [Compound 38], the Percentage of viability [2, 9] was 101 ± 3%, the Percentage of viability [2, 10] was 88 ± 3% and the “preservative/protective effect on skin fibroblasts (in words)” value [2] was “significant preservative/protective effect”.
For `Cl.Cl.N[C@@H](CCCCNCC(F)(F)C1(O)O[C@H](CO)[C@H](O)[C@H](O)[C@H]1O)C(=O)O` (stereo partly shown) [Compound 44], the Percentage of viability [2, 9] was 111 ± 2.9%, the Percentage of viability [2, 10] was 102 ± 1.3% and the “preservative/protective effect on skin fibroblasts (in words)” value [2] was “significant preservative/protective effect”.
With `C[C@H](NC(=O)[C@H](C)NC(=O)[C@@H](N)CCCCNC(=O)C(F)(F)[C@]1(O)O[C@H](CO)[C@H](O)[C@H](O)[C@H]1O)C(=O)O` [Compound X] the “% hydrolyzed” value ([5]; 2 eq NaOD, 2 h 30, D2O) was 2.0%, the “stability towards basic conditions (in words)” value ([5]; 2 to 8 eq NaOD, 2 h 30, 1H NMR) was “degradation; also recorded: sensitive to basic medium” and the “% hydrolyzed” value ([5]; 3 eq NaOD, 2 h 30, D2O) was 4.8%. For the same compound, the “% hydrolyzed” value ([5]; 4 eq NaOD, 2 h 30, D2O) was 13.0%, the “% hydrolyzed” value ([5]; 5 eq NaOD, 2 h 30, D2O) was 16.0% and the “% hydrolyzed” value ([5]; 6 eq NaOD, 2 h 30, D2O) was 19.0%. For the same compound, the “% hydrolyzed” value ([5]; 7 eq NaOD, 2 h 30, D2O) was 20.6%, the “% hydrolyzed” value ([5]; 8 eq NaOD, 2 h 30, D2O) was 22.2% and the “% hydrolyzed” value ([5]; 8 eq NaOD, 2 h 30, D2O, listed as compound X) was 22%. The “% hydrolyzed” value ([5]; Control, 0 eq NaOD) was 0.5%, the “% hydrolysis” value ([5]; Experiment A, 0 eq NaOD (Table 11)) was 0.5% and the “% hydrolysis” value ([5]; Experiment B, 8 eq NaOD, 3 days, D2O) was 85%.
